Molecular target: T1, Recombinant human HSD17B13 enzyme (Homo sapiens, UniProt Q7Z5P4)
T1 sequence (Q7Z5P4 20-300): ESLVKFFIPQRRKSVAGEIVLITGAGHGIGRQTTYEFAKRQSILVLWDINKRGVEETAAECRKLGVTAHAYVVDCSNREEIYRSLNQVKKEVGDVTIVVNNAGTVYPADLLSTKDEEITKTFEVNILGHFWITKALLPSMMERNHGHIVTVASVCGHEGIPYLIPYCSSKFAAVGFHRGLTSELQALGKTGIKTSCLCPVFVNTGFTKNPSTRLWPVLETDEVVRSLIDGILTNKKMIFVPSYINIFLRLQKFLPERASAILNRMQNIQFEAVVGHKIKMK
Assay: HSD17b13 NAD(P)H-Glo biochemical assay
Settings: 50 μM estradiol, 1 mM NAD+, 37° C. for 3 hours; read-out: HSD17β13 IC50
In short: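 Enzyme preincubated with inhibitor 20 min at RT in 20 mM Tris pH7.4, 0.002% Tween-20, 0.02% BSA, then reacted 3 h at 37° C with 50 μM estradiol and 1 mM NAD+ (final). NADH formation read by NAD(P)H-Glo luminescence after 1 h at RT.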

Structure (SMILES)	IC50 [nM]
CC(C)NC(=O)[C@@H]1COCCN1c1ncc2c(-c3cc(C(F)(F)F)c(F)c(O)c3F)nn(C)c2n1 [Compound 11.24, (S)-4-(3-(2,4-Difluoro-3-hydroxy-5-(trifluoromethyl)phenyl)-1-methyl-1H-pyrazolo[3,4-d]pyrimidin-6-yl)-N-isopropylmorpholine-3-carboxamide]	≤ 100
Cn1nc(-c2cc(C(F)(F)F)c(F)c(O)c2F)c2cnc(N3CCOC[C@H]3Cc3ccccc3F)nc21 [Compound 5.25, (R)-2,6-Difluoro-3-(6-(3-(2-fluorobenzyl)morpholino)-1-methyl-1H-pyrazolo[3,4-d]pyrimidin-3-yl)-5-(trifluoromethyl)phenol]	≤ 100
CC#Cc1cc(-c2nn(C)c3nc(N4CCN(S(C)(=O)=O)C[C@H]4Cc4ccccc4)ncc23)c(F)c(O)c1F [Compound 11.18, (R)-3-(6-(2-Benzyl-4-(methylsulfonyl)piperazin-1-yl)-1-methyl-1H-pyrazolo[3,4-d]pyrimidin-3-yl)-2,6-difluoro-5-(prop-1-yn-1-yl)phenol]	≤ 100
Cn1nc(-c2cc(C(F)(F)F)c(F)c(O)c2F)c2cnc(N3CCO[C@@H](Cc4cccc(S(N)(=O)=O)c4)C3)nc21 [Compound 12.06, (S)-3-((4-(3-(2,4-Difluoro-3-hydroxy-5-(trifluoromethyl)phenyl)-1-methyl-1H-pyrazolo[3,4-d]pyrimidin-6-yl)morpholin-2-yl)methyl)benzenesulfonamide]	≤ 100
Cc1nn(-c2cc(C(F)(F)F)c(F)c(O)c2F)c2cnc(N3CCOC[C@H]3Cc3ccccc3)nc12 [Compound 2.31, (R)-3-(5-(3-Benzylmorpholino)-3-methyl-1H-pyrazolo[4,3-d]pyrimidin-1-yl)-2,6-difluoro-5-(trifluoromethyl)phenol]	≤ 100
CS(=O)(=O)N1CCN(c2ccc3c(c2)c(N)nn3-c2cc(C(F)(F)F)c(F)c(O)c2F)[C@H](Cc2ccccc2)C1 [Compound 2.12, (R)-3-(3-Amino-5-(2-benzyl-4-(methylsulfonyl)piperazin-1-yl)-1H-indazol-1-yl)-2,6-difluoro-5-(trifluoromethyl)phenol]	≤ 100
Cn1nc(-c2cc(C(F)(F)F)c(F)c(O)c2F)c2cnc(N3CCOCC3CC3CC3)nc21 (stereo not drawn) [Compound 5.01, 3-(6-(3-(Cyclopropylmethyl)morpholino)-1-methyl-1H-pyrazolo[3,4-d]pyrimidin-3-yl)-2,6-difluoro-5-(trifluoromethyl)phenol]	≤ 100
Cc1nn(-c2ccc(Cl)c(O)c2F)c2cnc(N3CCN(S(C)(=O)=O)C[C@H]3Cc3ccccc3)cc12 [Compound 2.16, (R)-3-(5-(2-Benzyl-4-(methylsulfonyl)piperazin-1-yl)-3-methyl-1H-pyrazolo[3,4-c]pyridin-1-yl)-6-chloro-2-fluorophenol]	≤ 100
CS(=O)(=O)N1CCN(c2ncc3c(-c4cc(C(F)(F)F)c(F)c(O)c4F)n[nH]c3n2)[C@H](Cc2ccccc2)C1 [Compound 5.18, (R)-3-(6-(2-Benzyl-4-(methylsulfonyl)piperazin-1-yl)-1H-pyrazolo[3,4-d]pyrimidin-3-yl)-2,6-difluoro-5-(trifluoromethyl)phenol]	≤ 100
CS(=O)(=O)N1CCN(c2cc3cnn(-c4cc(C(F)(F)F)c(F)c(O)c4F)c3cn2)[C@H](Cc2ccccc2)C1 [Compound 2.19, (R)-3-(5-(2-Benzyl-4-(methylsulfonyl)piperazin-1-yl)-1H-pyrazolo[3,4-c]pyridin-1-yl)-2,6-difluoro-5-(trifluoromethyl)phenol]	≤ 100
CN1CCN(c2ncc3c(-c4cc(C(F)(F)F)c(F)c(O)c4F)nn(C)c3n2)[C@H](Cc2ccccc2)C1 [Compound 5.26, (R)-3-(6-(2-Benzyl-4-methylpiperazin-1-yl)-1-methyl-1H-pyrazolo[3,4-d]pyrimidin-3-yl)-2,6-difluoro-5-(trifluoromethyl)phenol]	≤ 100
Cn1nc(-c2cc(C(F)(F)F)c(F)c(O)c2F)c2cnc(N3CC[C@H]3Cc3ccccc3)nc21 (single isomer, unassigned) [Compound 15.10]	≤ 100
Cn1nc(-c2cc(Cl)c(F)c(O)c2F)c2cnc(N3CCN(S(C)(=O)=O)C[C@H]3Cc3ccccc3)nc21 [Compound 11.12, (R)-3-(6-(2-Benzyl-4-(methylsulfonyl)piperazin-1-yl)-1-methyl-1H-pyrazolo[3,4-d]pyrimidin-3-yl)-5-chloro-2,6-difluorophenol]	≤ 100
Cn1nc(-c2cc(C(F)(F)F)c(F)c(O)c2F)c2cnc(N3CCOC[C@H]3C(=O)NC3CCCCC3)nc21 [Compound 11.25, (S)-N-Cyclohexyl-4-(3-(2,4-difluoro-3-hydroxy-5-(trifluoromethyl)phenyl)-1-methyl-1H-pyrazolo[3,4-d]pyrimdiin-6-yl)morpholine-3-carboxamide]	≤ 100
Cn1nc(-c2cc(C(F)(F)F)c(F)c(O)c2F)c2cnc(N3CCOC[C@@H]3CC3CCCCC3)nc21 [Compound 15.05, (S)-3-(6-(3-(Cyclohexylmethyl)morpholino)-1-methyl-1H-pyrazolo[3,4-d]pyrimidin-3-yl)-2,6-difluoro-5-(trifluoromethyl)phenol]	≤ 100

Reference: US20240368127A1, “HSD17B13 INHIBITORS AND USES THEREOF” (FL2022-001, Inc., priority 2021, published 2024)
